Assay results taken from the supplement of paper PMC8092582.
Where a name gives a salt, the structure may show the parent alone. ± gives the standard deviation of the averaged measurements.

Tested on: HeLa
Assay: cell viability (CellTiter-Glo) relative to median of lowest-dilution wells of all drugs (fraction); higher = more viable cells
Procedure: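 HeLa control and CRISPR DDX11 knockout cells were seeded in 384-well plates and incubated for 72 h with each of 64 […] drugs at six concentrations. Viability was read with CellTiter-Glo and normalised to the median of the lowest (6th) dilution wells of all drugs. Two biological replicates (BR1, BR2) are averaged; the concentration unit is not stated.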

[1] = drug concentration (unit not stated): 0.04, genotype: DDX11 knockout
[2] = drug concentration (unit not stated): 0.04, genotype: control (DDX11 wild type)
[3] = drug concentration (unit not stated): 0.12, genotype: DDX11 knockout
[4] = drug concentration (unit not stated): 0.12, genotype: control (DDX11 wild type)
[5] = drug concentration (unit not stated): 0.37, genotype: DDX11 knockout
[6] = drug concentration (unit not stated): 0.37, genotype: control (DDX11 wild type)
[7] = drug concentration (unit not stated): 1.11, genotype: DDX11 knockout
[8] = drug concentration (unit not stated): 1.11, genotype: control (DDX11 wild type)
[9] = drug concentration (unit not stated): 3.33, genotype: DDX11 knockout
[10] = drug concentration (unit not stated): 3.33, genotype: control (DDX11 wild type)
[11] = drug concentration (unit not stated): 10, genotype: DDX11 knockout
[12] = drug concentration (unit not stated): 10, genotype: control (DDX11 wild type)
[13] = drug concentration (unit not stated): 0.01, genotype: DDX11 knockout
[14] = drug concentration (unit not stated): 0.01, genotype: control (DDX11 wild type)
[15] = drug concentration (unit not stated): 30, genotype: DDX11 knockout
[16] = drug concentration (unit not stated): 30, genotype: control (DDX11 wild type)

Compound `O=C(c1cc(Cc2n[nH]c(=O)c3ccccc23)ccc1F)N1CCN(C(=O)C2CC2)CC1` [Olaparib] has a cell viability [1] of 1.072 ± 0.0052, a cell viability [2] of 1.02 ± 0.032 and a cell viability [3] of 1.02 ± 0.024. For the same compound, the cell viability [4] was 1.04 ± 0.043, the cell viability [5] was 0.953 ± 0.063 and the cell viability [6] was 0.959 ± 0.036. The cell viability [7] was 0.954 ± 0.037, the cell viability [8] was 0.967 ± 0.035 and the cell viability [9] was 0.796 ± 0.076. The cell viability [10] was 0.987 ± 0.011, the cell viability [11] was 0.677 ± 0.083 and the cell viability [12] was 1.01 ± 0.066.

`Nc1nc2[nH]cnc2c(=S)[nH]1` [Thioguanine] was tested, and the cell viability [1] was 1.03 ± 0.045, the cell viability [2] was 1.04 ± 0.04 and the cell viability [3] was 0.992 ± 0.017. The cell viability [4] was 0.971 ± 0.044, the cell viability [5] was 0.94 ± 0.039 and the cell viability [6] was 0.762 ± 0.065. The cell viability [7] was 0.731 ± 0.15, the cell viability [8] was 0.428 ± 0.15 and the cell viability [9] was 0.536 ± 0.12. It also gave a cell viability [10] of 0.433 ± 0.21, a cell viability [11] of 0.239 ± 0.025 and a cell viability [12] of 0.387 ± 0.2.

`COC1=CC(c2cc3ccccc3[nH]2)=N/C1=C\c1[nH]c(C)cc1C` [Obatoclax mesylate] showed a cell viability [1] of 1.07 ± 0.017, a cell viability [2] of 1.01 ± 0.056 and a cell viability [3] of 0.872 ± 0.087. It also gave a cell viability [4] of 1.05 ± 0.19, a cell viability [5] of 0.56 ± 0.044 and a cell viability [6] of 0.728 ± 0.13. It also gave a cell viability [7] of 0.307 ± 0.026, a cell viability [8] of 0.415 ± 0.13 and a cell viability [9] of 0.25 ± 0.017. For the same compound, the cell viability [10] was 0.344 ± 0.14, the cell viability [11] was 0.141 ± 0.062 and the cell viability [12] was 0.0791 ± 0.041.

Work on `CC[C@@]1(O)C(=O)OCc2c1cc1n(c2=O)Cc2cc3c(CN(C)C)c(O)ccc3nc2-1` [Topotecan HCl] yielded a cell viability [13] of 0.74 ± 0.27, a cell viability [14] of 0.86 ± 0.14 and a cell viability [1] of 0.519 ± 0.38. For the same compound, the cell viability [2] was 0.709 ± 0.57, the cell viability [3] was 0.206 ± 0.19 and the cell viability [4] was 0.228 ± 0.21. It also gave a cell viability [5] of 0.0639 ± 0.033, a cell viability [6] of 0.0738 ± 0.043 and a cell viability [7] of 0.0268 ± 0.0046. For the same compound, the cell viability [8] was 0.0567 ± 0.046, the cell viability [9] was 0.0244 ± 0.0069 and the cell viability [10] was 0.0265 ± 0.01.

`Nc1nc(Cl)nc2c1ncn2[C@@H]1O[C@H](CO)[C@@H](O)[C@@H]1F` [Clofarabine] showed a cell viability [13] of 1.03 ± 0.061, a cell viability [14] of 1.04 ± 0.013 and a cell viability [1] of 0.967 ± 0.12. For the same compound, the cell viability [2] was 0.999 ± 0.11, the cell viability [3] was 0.699 ± 0.46 and the cell viability [4] was 0.887 ± 0.6. For the same compound, the cell viability [5] was 0.177 ± 0.19, the cell viability [6] was 0.181 ± 0.2 and the cell viability [7] was 0.0355 ± 0.013. For the same compound, the cell viability [8] was 0.0535 ± 0.038.

`N.N.[Cl][Pt][Cl]` [Cisplatin] gave a cell viability [1] of 0.76437 ± 0.00042, a cell viability [2] of 0.986 ± 0.093 and a cell viability [3] of 0.541 ± 0.11. It also gave a cell viability [4] of 0.885 ± 0.29, a cell viability [5] of 0.233 ± 0.12 and a cell viability [6] of 0.464 ± 0.12. It also gave a cell viability [7] of 0.0768 ± 0.043, a cell viability [8] of 0.112 ± 0.0088 and a cell viability [9] of 0.0231 ± 0.0084. It also gave a cell viability [10] of 0.024 ± 0.0028, a cell viability [11] of 0.0148 ± 0.0023 and a cell viability [12] of 0.0159 ± 0.0015.

`Cc1cc(Nc2cc(N3CCN(C)CC3)nc(Sc3ccc(NC(=O)C4CC4)cc3)n2)n[nH]1` [Tozasertib (VX-680)] gave a cell viability [3] of 0.959 ± 0.016, a cell viability [4] of 0.978 ± 0.1 and a cell viability [5] of 0.951 ± 0.025. It also gave a cell viability [6] of 1.1 ± 0.2, a cell viability [7] of 0.976 ± 0.087 and a cell viability [8] of 1.03 ± 0.22. For the same compound, the cell viability [9] was 0.912 ± 0.048, the cell viability [10] was 1.02 ± 0.23 and the cell viability [11] was 0.823 ± 0.04. The cell viability [12] was 0.975 ± 0.22, the cell viability [15] was 0.659 ± 0.067 and the cell viability [16] was 0.764 ± 0.19.

With `CC(=O)Nc1cccc(-n2c(=O)n(C3CC3)c(=O)c3c(Nc4ccc(I)cc4F)n(C)c(=O)c(C)c32)c1` [Trametinib] the cell viability [1] was 0.814 ± 0.081, the cell viability [2] was 0.908 ± 0.2 and the cell viability [3] was 0.773 ± 0.058. The cell viability [4] was 0.914 ± 0.18, the cell viability [5] was 0.861 ± 0.12 and the cell viability [6] was 0.976 ± 0.28. It also gave a cell viability [7] of 0.736 ± 0.17, a cell viability [8] of 0.952 ± 0.31 and a cell viability [9] of 0.613 ± 0.23. The cell viability [10] was 0.968 ± 0.34, the cell viability [11] was 0.46 ± 0.03 and the cell viability [12] was 0.706 ± 0.17.

Compound `Nc1ncn([C@H]2C[C@H](O)[C@@H](CO)O2)c(=O)n1` [Decitabine] has a cell viability [1] of 1.062 ± 0.0019, a cell viability [2] of 1.0513 ± 0.0006 and a cell viability [3] of 1.01 ± 0.16. It also gave a cell viability [4] of 1.06 ± 0.019, a cell viability [5] of 1.03 ± 0.12 and a cell viability [6] of 1.03 ± 0.043. The cell viability [7] was 0.973 ± 0.012, the cell viability [8] was 1.05 ± 0.054 and the cell viability [9] was 0.975 ± 0.099. The cell viability [10] was 1.1 ± 0.097, the cell viability [11] was 0.867 ± 0.018 and the cell viability [12] was 1.11 ± 0.086.

Work on `CO[C@H]1C[C@@H]2CC[C@@H](C)[C@@](O)(O2)C(=O)C(=O)N2CCCC[C@H]2C(=O)O[C@H]([C@H](C)C[C@@H]2CC[C@@H](O)[C@H](OC)C2)CC(=O)[C@H](C)/C=C(\C)[C@@H](O)[C@@H](OC)C(=O)[C@H](C)C[C@H](C)/C=C/C=C/C=C/1C` [Rapamycin (Sirolimus)] yielded a cell viability [13] of 0.764 ± 0.11, a cell viability [14] of 0.916 ± 0.33 and a cell viability [1] of 0.755 ± 0.13. It also gave a cell viability [2] of 0.883 ± 0.33, a cell viability [3] of 0.786 ± 0.18 and a cell viability [4] of 0.887 ± 0.33. It also gave a cell viability [5] of 0.706 ± 0.11, a cell viability [6] of 0.903 ± 0.33 and a cell viability [7] of 0.718 ± 0.11. The cell viability [8] was 0.878 ± 0.35, the cell viability [9] was 0.67 ± 0.12 and the cell viability [10] was 0.84 ± 0.35.

`CC[C@H](CO)Nc1nc(NCc2ccccc2)c2ncn(C(C)C)c2n1` [Seliciclib (Roscovitine)] was tested, and the cell viability [3] was 0.992 ± 0.018, the cell viability [4] was 0.946 ± 0.036 and the cell viability [5] was 1.008 ± 0.0031. The cell viability [6] was 0.98 ± 0.018, the cell viability [7] was 1.04 ± 0.021 and the cell viability [8] was 1 ± 0.033. It also gave a cell viability [9] of 1 ± 0.012, a cell viability [10] of 0.994 ± 0.038 and a cell viability [11] of 1.01 ± 0.051. It also gave a cell viability [12] of 1.028 ± 0.008, a cell viability [15] of 0.577 ± 0.26 and a cell viability [16] of 0.893 ± 0.38.

`O=c1[nH]c(=O)n([C@H]2C[C@H](O)[C@@H](CO)O2)cc1F` [Floxuridine] gave a cell viability [13] of 1.04 ± 0.047, a cell viability [14] of 1.2 ± 0.21 and a cell viability [1] of 1 ± 0.05. It also gave a cell viability [2] of 1.1 ± 0.054, a cell viability [3] of 0.961 ± 0.15 and a cell viability [4] of 0.998 ± 0.019. The cell viability [5] was 1.01 ± 0.13, the cell viability [6] was 0.952 ± 0.19 and the cell viability [7] was 0.858 ± 0.19. The cell viability [8] was 0.874 ± 0.31, the cell viability [9] was 0.76 ± 0.43 and the cell viability [10] was 0.786 ± 0.51.

Work on `CC(C)C[C@H](NC(=O)[C@H](Cc1ccccc1)NC(=O)c1cnccn1)B(O)O` [Bortezomib (Velcade)] yielded a cell viability [13] of 0.863 ± 0.14, a cell viability [14] of 0.807 ± 0.22 and a cell viability [1] of 0.215 ± 0.22. The cell viability [2] was 0.169 ± 0.17, the cell viability [3] was 0.0261 ± 0.012 and the cell viability [4] was 0.0235 ± 0.00034. It also gave a cell viability [5] of 0.0196 ± 0.002, a cell viability [6] of 0.0189 ± 0.00099 and a cell viability [7] of 0.0168 ± 0.0011. It also gave a cell viability [8] of 0.0168 ± 0.0026, a cell viability [9] of 0.0124 ± 0.00057 and a cell viability [10] of 0.0137 ± 0.003.

`Nc1ccn([C@@H]2O[C@H](CO)[C@@H](O)C2(F)F)c(=O)n1` [Gemcitabine HCl (Gemzar)] showed a cell viability [13] of 0.0596 ± 0.017, a cell viability [14] of 0.0573 ± 0.021 and a cell viability [1] of 0.0446 ± 0.0085. The cell viability [2] was 0.0383 ± 0.016, the cell viability [3] was 0.0501 ± 0.015 and the cell viability [4] was 0.0767 ± 0.053. The cell viability [5] was 0.0439 ± 0.017, the cell viability [6] was 0.065 ± 0.04 and the cell viability [7] was 0.0472 ± 0.028. For the same compound, the cell viability [8] was 0.0514 ± 0.028.

`O=C(O)CCCc1ccc(N(CCCl)CCCl)cc1` [Chlorambucil] was tested, and the cell viability [1] was 1.061 ± 0.009, the cell viability [2] was 0.974 ± 0.056 and the cell viability [3] was 1.02 ± 0.062. For the same compound, the cell viability [4] was 0.9875 ± 0.0097, the cell viability [5] was 1.05 ± 0.11 and the cell viability [6] was 1.02 ± 0.012. It also gave a cell viability [7] of 1.06 ± 0.057, a cell viability [8] of 0.999 ± 0.021 and a cell viability [9] of 1.07 ± 0.042. The cell viability [10] was 1.05 ± 0.082, the cell viability [11] was 0.925 ± 0.1 and the cell viability [12] was 1.03 ± 0.051.
